Experimental data from publication PMC6445163, “Design, synthesis, and evaluation of novel 2-phenylpropionic acid derivatives as dual COX inhibitory-antibacterial agents” (Journal of Enzyme Inhibition and Medicinal Chemistry, 2017).
Values after ≈ are worked out from the molar mass of the structure shown.

Legend:
COX-1 = target: T1, COX-1 (Ovis aries, UniProt P05979); test: fluorometric COX-1 inhibitor screening kit assay; assay type: biochemical; settings: for SI (selectivity index): IC50 (COX-1)/IC50 (COX-2); for IC50: fluorometric kit, 25 °C; for Selectivity: isoform preferred according to SI
T1 construct: purchased Biovision K548-100
T1 sequence (P05979 25-600): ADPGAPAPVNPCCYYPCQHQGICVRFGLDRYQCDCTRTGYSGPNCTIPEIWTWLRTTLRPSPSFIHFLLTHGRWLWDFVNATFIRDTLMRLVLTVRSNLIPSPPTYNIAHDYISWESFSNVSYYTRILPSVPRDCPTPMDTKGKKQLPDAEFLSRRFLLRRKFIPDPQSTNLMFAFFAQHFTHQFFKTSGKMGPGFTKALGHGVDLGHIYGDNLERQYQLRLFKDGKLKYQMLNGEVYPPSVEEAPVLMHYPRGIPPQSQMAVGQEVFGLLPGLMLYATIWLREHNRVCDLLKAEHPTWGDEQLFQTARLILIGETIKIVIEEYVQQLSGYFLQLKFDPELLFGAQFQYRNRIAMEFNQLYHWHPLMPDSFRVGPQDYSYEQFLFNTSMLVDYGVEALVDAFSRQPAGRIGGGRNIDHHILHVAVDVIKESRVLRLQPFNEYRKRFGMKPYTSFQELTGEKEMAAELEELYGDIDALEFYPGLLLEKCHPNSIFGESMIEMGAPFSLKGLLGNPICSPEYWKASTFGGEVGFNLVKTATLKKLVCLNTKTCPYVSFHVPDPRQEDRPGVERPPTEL
Description: (§1) Inhibitory potency of the compounds against COX-1 and COX-2 enzymes was determined using fluorometric COX-1 and COX-2 inhibitor screening kits (Biovision, Zurich, Switzerland). Experimental protocol was followed as described in the guides of the supplier[47]^,[48]. All of the pipettings in the assay were performed by Biotek Precision robotic system (BioTek Instruments, Inc., Winooski, VT). […] Appropriate two points (T1 and T2) in the linear range of the plot were chosen, and the corresponding fluorescence values (RFU1 and RFU2) were obtained. The slope for all samples, including enzyme control (EC), by dividing the net ΔRFU (RFU2–RFU1) values by the time ΔT (T2–T1) were calculated by using following equation: % Relative inhibition=(Slope of EC-Slope of S/Slope of EC)×100
(§2) This initial in vitro assay was done with two concentrations (10^−3 and 10^−4 M) for all compounds. […] The IC50 value was calculated from the plots of enzyme activity against concentrations by applying regression analyses on GraphPad Prism Version 5 (GraphPad Software, La Jolla, CA).
(§3) Selectivity indexes (SI) were expressed as IC50 (COX-1)/IC50 (COX-2). Selectivity toward COX-2 decreases as the corresponding SI decreases while selectivity toward COX-1 isoform increases as the corresponding SI decreases.

COX-2 = target: T2, COX-2 (Homo sapiens, UniProt P35354); test: fluorometric COX-2 inhibitor screening kit assay; assay type: biochemical; settings: 25 °C
T2 construct: purchased Biovision K547-100
T2 sequence (P35354 18-604): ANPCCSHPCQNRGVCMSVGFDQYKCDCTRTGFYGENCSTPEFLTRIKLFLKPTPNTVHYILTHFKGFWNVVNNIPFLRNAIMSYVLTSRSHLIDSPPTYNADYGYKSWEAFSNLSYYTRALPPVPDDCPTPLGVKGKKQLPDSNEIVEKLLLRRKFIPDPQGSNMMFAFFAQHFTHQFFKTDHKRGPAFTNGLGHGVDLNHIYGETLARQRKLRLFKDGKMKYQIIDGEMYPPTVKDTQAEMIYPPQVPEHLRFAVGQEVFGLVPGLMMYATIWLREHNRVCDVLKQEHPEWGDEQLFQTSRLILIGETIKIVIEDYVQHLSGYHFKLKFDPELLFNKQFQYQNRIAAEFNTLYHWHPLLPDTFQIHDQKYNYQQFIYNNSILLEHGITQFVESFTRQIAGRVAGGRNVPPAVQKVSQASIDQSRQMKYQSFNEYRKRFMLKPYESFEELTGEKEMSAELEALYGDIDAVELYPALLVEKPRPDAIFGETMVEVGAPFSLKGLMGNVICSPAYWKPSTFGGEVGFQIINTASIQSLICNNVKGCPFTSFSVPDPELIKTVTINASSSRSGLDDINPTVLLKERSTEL
Description: as §1, §2, §3

[1] = system: Enterococcus faecalis (ATCC 29212); test: broth microdilution MIC (CLSI M07-A9), resazurin; assay type: cell-based; settings: ATCC29212, 24 h
Description: (§4) Microbiological studies were performed according to following guides: CLSI reference […]-A9 broth microdilution method[49] for bacterial strains and EUCAST definitive (EDef 7.1) method[50] for Candida species. Synthesized compounds were tested for their in vitro growth inhibitory activity against Staphylococcus aureus (ATCC 25923), Enterococcus faecalis (ATCC 29212), Listeria monocytogenes (ATCC 1911), Klebsiella pneumoniae (NCTC 9633), Escherichia coli (ATCC 35218), E. coli (ATCC 25922) Candida albicans (ATCC 24433) Candida krusei (ATCC 6258) and Candida parapsilosis (ATCC 22019). Chloramphenicol and ketoconazole were used as control drugs. The cultures were obtained from the Mueller-Hinton broth (Difco) for the bacterial strains after overnight incubation at 37 °C. The yeasts were maintained in Roswell Park Memorial Institute (RPMI) after overnight incubation at 37 °C. […] Testing was carried out in Mueller-Hinton broth and RPMI at pH =7, and the two-fold serial dilutions technique was applied. The last well on the microplates containing only inoculated broth was kept as controls and the last well with no growth of microorganism was recorded to represent the minimum inhibitory concentration (MIC) expressed in μg/mL. For both the antibacterial and antifungal assays, the compounds were dissolved in DMSO. […] The completed plates were incubated for 24 h. At the end of the incubation, resazurin (20 μg/mL) was added into each well and plates were incubated for 2 h. MIC values were determined using a microplate reader at […]. Synthesized compounds (6a-6m) were evaluated for antimicrobial activity against various microorganisms such as Staphylococcus aureus (ATCC 25923), Enterococcus faecalis (ATCC 29212), Listeria monocytogenes (ATCC 1911), Klebsiella pneumoniae (NCTC 9633), Escherichia coli (ATCC 35218), E. coli (ATCC 25922)Candida albicans (ATCC 24433) Candida krusei (ATCC 6258) and Candida parapsilosis (ATCC 22019). […] Chloramphenicol and ketoconazole were used as standard drugs in the activity test. […] Besides, the compounds 6d, 6h, 6l and 6m indicated stronger antibacterial activity than the other compounds in the series.

[2] = system: Escherichia coli (ATCC 25922); test: broth microdilution MIC (CLSI M07-A9), resazurin; assay type: cell-based; settings: ATCC25922, 24 h, read-out: MIC Ec-2
Description: as §4

[3] = system: Escherichia coli (ATCC 35218); test: broth microdilution MIC (CLSI M07-A9), resazurin; assay type: cell-based; settings: ATCC35218, 24 h, read-out: MIC Ec-1
Description: as §4

[4] = system: Klebsiella pneumoniae (NCTC 9633); test: broth microdilution MIC (CLSI M07-A9), resazurin; assay type: cell-based; settings: 24 h
Description: as §4

[5] = system: Listeria monocytogenes (ATCC 1911); test: broth microdilution MIC (CLSI M07-A9), resazurin; assay type: cell-based; settings: ATCC1911, 24 h
Description: as §4

[6] = system: Staphylococcus aureus (ATCC 25923); test: broth microdilution MIC (CLSI M07-A9), resazurin; assay type: cell-based; settings: ATCC25923, 24 h
Description: as §4

[7] = system: Candida albicans (ATCC 24433); test: broth dilution MIC (EUCAST EDef 7.1), resazurin; assay type: cell-based; settings: ATCC24433, 24 h
Description: as §4

[8] = system: Candida krusei (ATCC 6258); test: broth dilution MIC (EUCAST EDef 7.1), resazurin; assay type: cell-based; settings: Pichia kudriavzevii, ATCC6258, 24 h
Description: as §4

[9] = system: Candida parapsilosis (ATCC 22019); test: broth dilution MIC (EUCAST EDef 7.1), resazurin; assay type: cell-based; settings: ATCC22019, 24 h
Description: as §4

MTT cytotoxicity test = settings: mouse
Description: NIH/3T3 cells were incubated according to the supplier’s recommendations. NIH/3T3 cells were seeded at 1 × 10^4 cells into each well of 96-well plates. MTT assay was performed as previously described[51]^,[52].
There are a number of requirements to be fulfilled for successful new drug development. […] This assay is based upon the reduction of yellow MTT dye by metabolically active eukaryotic and prokaryotic cells to form the purple formazan product. The assay is generally used to examine cell viability and to estimate cell culture growth[66]^,[67].

SI (selectivity index) (COX-1)	IC50 (COX-1)	Selectivity (COX-1)	IC50 (COX-2)	MIC [1]	MIC [2]	MIC [3]	MIC Kp [4]	MIC [5]	MIC [6]	MIC [7]	MIC [8]	MIC [9]	melting point	SMILES	IC50 (MTT cytotoxicity test)
0.62	5.9 µM	COX-1	9.56 µM	12.5 µg/mL (≈ 40 µM)	12.5 µg/mL (≈ 40 µM)	6.25 µg/mL (≈ 20 µM)	6.25 µg/mL (≈ 20 µM)	12.5 µg/mL (≈ 40 µM)	12.5 µg/mL (≈ 40 µM)	100 µg/mL (≈ 320 µM)	100 µg/mL (≈ 320 µM)	50 µg/mL (≈ 160 µM)	208.7 to 210.9 °C	CC(C(=O)O)c1ccc(CSc2nc3ccccc3[nH]2)cc1 (centres unmarked) [Compound 6i, 2-(4-(((1H-benzo[d]imidazol-2-yl)thio)methyl)phenyl)propanoic acid]	–
0.58	4.4 µM	COX-1	7.53 µM	12.5 µg/mL (≈ 38.3 µM)	12.5 µg/mL (≈ 38.3 µM)	6.25 µg/mL (≈ 19.1 µM)	6.25 µg/mL (≈ 19.1 µM)	12.5 µg/mL (≈ 38.3 µM)	12.5 µg/mL (≈ 38.3 µM)	100 µg/mL (≈ 306 µM)	100 µg/mL (≈ 306 µM)	50 µg/mL (≈ 153 µM)	209.1 to 211.6 °C	Cc1ccc2[nH]c(SCc3ccc(C(C)C(=O)O)cc3)nc2c1 (centres unmarked) [Compound 6j, 2-(4-(((5-Methyl-1H-benzo[d]imidazol-2-yl)thio)methyl)phenyl)propanoic acid]	–
0.63	3.71 µM	COX-1	5.91 µM	12.5 µg/mL (≈ 36 µM)	12.5 µg/mL (≈ 36 µM)	6.25 µg/mL (≈ 18 µM)	6.25 µg/mL (≈ 18 µM)	12.5 µg/mL (≈ 36 µM)	12.5 µg/mL (≈ 36 µM)	50 µg/mL (≈ 144 µM)	50 µg/mL (≈ 144 µM)	50 µg/mL (≈ 144 µM)	208.8 to 211.5 °C	CC(C(=O)O)c1ccc(CSc2nc3cc(Cl)ccc3[nH]2)cc1 (centres unmarked) [Compound 6k, 2-(4-(((5-Chloro-1H-benzo[d]imidazol-2-yl)thio)methyl)phenyl)propanoic acid]	–
0.52	4.48 µM	COX-1	8.66 µM	6.25 µg/mL (≈ 17.5 µM)	6.25 µg/mL (≈ 17.5 µM)	6.25 µg/mL (≈ 17.5 µM)	6.25 µg/mL (≈ 17.5 µM)	12.5 µg/mL (≈ 35 µM)	6.25 µg/mL (≈ 17.5 µM)	50 µg/mL (≈ 140 µM)	50 µg/mL (≈ 140 µM)	50 µg/mL (≈ 140 µM)	176.5 to 178.7 °C	CC(C(=O)O)c1ccc(CSc2nc3cc([N+](=O)[O-])ccc3[nH]2)cc1 (centres unmarked) [Compound 6m, 2-(4-(((5-Nitro-1H-benzo[d]imidazol-2-yl)thio)methyl)phenyl)propanoic acid]	–

The remaining lines, values behind:

SMILES	SI (selectivity index) (COX-1)	IC50 (COX-1)	Selectivity (COX-1)	IC50 (COX-2)	MIC [1]	MIC [2]	MIC [3]	MIC Kp [4]	MIC [5]	MIC [6]	MIC [7]	MIC [8]	MIC [9]	melting point	IC50 (MTT cytotoxicity test)
CC(C)Cc1ccc(C(C)C(=O)O)cc1 (centres unmarked) [Ibuprofen, reference compound]	–	–	–	–	–	–	–	–	–	–	–	–	–	–	≥ 1000 µM
CS(=O)(=O)Nc1ccc([N+](=O)[O-])cc1Oc1ccccc1 [Nimesulide, reference compound]	–	4.28 µM	–	–	–	–	–	–	–	–	–	–	–	–	≥ 1000 µM
